In US20230414596A1 (PRILENIA NEUROTHERAPEUTICS LTD., priority 2020, published 2023):
Values joined by “and” are separate entries in the source; they are usually repeats but may differ in a detail not shown here. Equal entries are not always repeated. Where two headings read alike, the source gives them in different places.

What was measured:
Sigma-2 receptor (S2R) = Sigma-2 receptor (S2R) (Homo sapiens (Human), UniProt Q5BJF2); test: Sigma-2 receptor in-vitro binding assay
early HD patients = conditions: 45 mg bid
Source text: Change from baseline in UHDRS TMS gait balances week 26 (A) and Week 52(B) in early HD (baseline TFC 7-13) patients in the PRIDE-HD study.
Change from baseline in UHDRS TMS gait and balances scale at weeks 26 and 52 in early HD (baseline TFC 7-13).

[1] = test system: cultured cortical neurons from the HD YAC128 mouse model; conditions: Smith-Dijak et al., 2019; cited from earlier work
[2] = test system: female MeCP2 heterozygous (Rett) mice; conditions: 30 mg/kg bid orally, 8 weeks of age
Method: Clasping is used to assess muscular strength in limb muscles. Hindlimb clasping is measured in mice held by the tail and gently lifted until the front paws just lift off the counter surface. The experimenter observes the legs and determines clasping or splaying of limbs. […] Data are mean±SEM, N-1 two-proportional tests.
(§1) Dosing commenced when mice were ˜5.5 weeks of age and continued through the end of behavioral testing. Behavioral testing was done at 8 and 12 weeks of age.
Mice were held by the tail and gently lifted until the front paws just lift off the counter surface. The experimenter observed the legs and determined clasping or splaying of limbs. After testing, animals were placed back into the test or home cage. Percent clasping of the hindlimbs was determined and reported.

[3] = test system: female MeCP2 heterozygous (Rett) mice; conditions: for Recovery of overall gait features: female Rett mice, 30 mg/kg bid
Method: FIG. 1: Feature recovery as a measure of the therapeutic drug effect on Mecp2-KO Rett Syndrome model mice. This figure is intended to provide an explanation as to how the data is analyzed in FIGS. 4, 5 and 12.
Left: “the cloud graph”: Visualization of the control−disease−(disease+treatment) groups relationship in the optimal discrimination feature space.
The drug treatment effect can be represented as a combination of two components: one along the direction of the “recovery line” (the line connecting the centers of the control (WT) and disease (MECP2-KO) clouds, shown as a thick arrow to the left with diagonal lines on top), and the component orthogonal to (“pointing away” from) that direction shown as an arrow pointing up with parallel lines within. The relative length of the “recovery” arrow with respect to the control-disease distance can then be interpreted as the “recovery due to the drug”, whereas the relative length of the “other effect” (orthogonal with parallel lines inside) arrow represents feature changes that move the disease mice+treatment group away from the control group. The summary of this analysis can be effectively represented as a bar graph (right pane in FIG. 1A) which is typically referred to as the recovery signature.
Right: “the recovery signature” graph: The bar graph represents the summary of the recovery analysis. The overlap and discrimination probability sum up to 100%. The recovery ranges from […]. The lower the overlap, the better the quality of the disease model, and the higher the discrimination power between the WT and Rett mice groups. The “other behavioral effect” is in the same relative units (relative to the length of the distance between the WT and Rett mice groups).
The NeuroCube® system is a platform that employs computer vision to detect changes in gait geometry and gait dynamics in rodent models of neurological disorders, pain & neuropathies. This platform is unique for gait testing for the following reasons: • It is completely automated and thus removes any bias or subjectivity • This system captures both gait geometry and gait dynamics (stance, swing, propulsion, etc.)
Mice were placed in the NeuroCube for a 5 min test. The most dominant of the features collected that define the disease phenotype (symptom descriptors) was identified and ranked. Complex bioinformatic algorithms were employed to calculate the discrimination probability between the WT and the Rett HET MeCP2 mice and detect a test compound's ability to reverse the disease phenotype. Discriminations between mutant and wild type was calculated as well as the recovery of disease features in Rett HET MeCP2 mice treated with the test compound.
The output of NeuroCube is a set of dozens of behavioral features that are submitted for analysis with machine learning techniques used in bioinformatics. Many of these features are correlated (e.g. rearing counts and supported rearing counts). Therefore, PGI forms statistically independent combinations of the original features (further referred to as de-correlated features) that discriminate between the two groups more effectively.
Each de-correlated feature extracts information from the whole cluster of the original features, so the new feature space has lower dimensionality. Next, PGI applies a proprietary feature ranking algorithm to score each feature's discrimination power (ability to separate the two groups, e.g. control and disease).
Ranking is an important part of the analyses because it weighs each feature change by its relevance: if there is a significant change in some irrelevant feature measured for a particular phenotype, the low rank of this feature will automatically reduce the effect of such change in the analyses, so there is no need to resort to the conventional “feature selection” approach and discard information buried in the less informative features.

[4] = test system: B104 rat neuroblastoma cells; test: BDNF release in-situ ELISA in B104 neuroblastoma cells; format: cell-based; conditions: 5 days
Source text: […]. Compound 4 alone had no effect on BDNF secretion—(1.5%). […]. Compound 4 alone had no effect on BDNF secretion (−1.5%). […].

[5] = test system: Rett disease gene expression signature
[6] = test system: female MeCP2 heterozygous (Rett) mice; conditions: 3 mg/kg bid
Method: as §1
Mice were placed in the PPI chambers (Med Associates) for a 5 min session of white noise (70 dB) habituation.
The inter-trial interval was variable with an average of 15 s (range from 10 to 20 s).

[7] = test system: B6.129P2-Mecp2tm2Bird/J (Rett-KO) male mice; conditions: 30 mg/kg bid
Method: The room temperature was maintained between 20 and 23° C. with a relative humidity maintained around 50%. Chow and water were provided ad libitum for the duration of the study.

[8] = test system: BDNF transcripts (BDNF I, IV, VI, IX) mRNA; conditions: whole brain, Rett mice
Source text: FIGS. 6A-6C, 7, 8, 9, 10: These figures display mRNA levels of BDNF transcripts measured in the brains of female heterozygous MeCP2 (Rett) mice. […] The relative quantity of the gene target is normalized to the geometric means of the relative quantity of the housekeeping genes APT5B, GAPDH and RPK12A. Relative level of the target gene was then normalized to the WT vehicle group. All data are represented as the mean±SEM. ANOVA followed by Tukey's multiple comparisons test.
Mice were euthanized via cervical dislocation and decapitated. From 10 mice/treatment group, whole brains were collected, weighed, and then frozen on dry ice. Samples were stored at −80° C. until analysis of brain-derived neurotrophic factor (BDNF).
Tissues (whole brain) were homogenized, and RNA extracted and quantified. An aliquote was reverse-transcribed into cDNA.
Up to three independent RT reactions were performed for each RNA sample. qPCR was performed using the primers detailed in Table 5 below.
Whole brain cDNA prepared from a pooled sample of WT vehicle treated animals was used as calibrator (calibrator is diluted same as sample cDNA) to normalized plate-to-plate variations. Each cDNA sample (diluted 1:10) was assayed in triplicates and the Ct values averaged.
Relative quantity of the PCR product (relative to the calibrator) was calculated as follows:
Relative Quantity of Target gene=(PCR EfficiencyTarget)^(Ct caltbrator-Ctsample)
Geometric mean=(relative quantity of housekeeping gene1*relative quantity of housekeeping gene2*relative quantity of housekeeping gene3)^(1/3)
Relative Quantity of Target gene Geometric mean of housekeeping genes
Relative level of target gene was then normalized to the WT vehicle group.

[9] = test system: B104 rat neuroblastoma cells; conditions: in-situ ELISA, Geva et al. 2016; cited from earlier work

Sigma-2 receptor (S2R), sequence (Q5BJF2 whole entry, species assumed): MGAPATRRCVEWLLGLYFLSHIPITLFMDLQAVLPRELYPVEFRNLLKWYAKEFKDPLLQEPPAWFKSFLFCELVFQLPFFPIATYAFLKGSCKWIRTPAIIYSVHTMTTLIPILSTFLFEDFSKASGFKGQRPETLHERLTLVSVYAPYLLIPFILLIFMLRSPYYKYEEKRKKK

CCCN1CC[C@@H](c2cccc(S(C)(=O)=O)c2)[C@@H](O)C1 [Compound 4]
S1R fold selectivity (S2R/S1R) (Sigma-2 receptor (S2R)): >35 fold

CCCN1CCC(c2cccc(S(C)(=O)=O)c2)CC1 [Pridopidine, 4-[3-(methylsulfonyl)phenyl]-1-propyl-piperidine]
UHDRS TMS gait and balance, Δ from placebo (early HD patients; HD1 (TFC 11-13), Week 26): −0.31
UHDRS TMS gait and balance, Δ from placebo (early HD patients; HD1 (TFC 11-13), Week 52): −0.94
UHDRS TMS gait and balance, Δ from placebo (early HD patients; HD2 (TFC 7-10), Week 26): −0.53
UHDRS TMS gait and balance, Δ from placebo (early HD patients; HD2 (TFC 7-10), Week 52): −0.18
UHDRS TMS gait and balance, Δ from placebo (early HD patients; early HD (TFC 7-13), Week 26): −0.48
UHDRS TMS gait and balance, Δ from placebo (early HD patients; early HD (TFC 7-13), Week 52): −0.41
Impaired homeostatic synaptic plasticity (HSP) [1]: restores impaired HSP
Percent clasping of the hindlimbs [2]: zero
Percent clasping of the hindlimbs ([2]; listed as pridopidine): 0%
% Recovery 3 mg/kg BID, Body Motion ([3]; 8 weeks, 3 mg/kg BID): 81%,
% Recovery 3 mg/kg BID, Gait ([3]; 8 weeks, 3 mg/kg BID): 38%,
% Recovery 30 mg/kg BID, Body Motion ([3]; 8 weeks, 30 mg/kg BID): 84%,
% Recovery 30 mg/kg BID, Gait ([3]; 8 weeks, 30 mg/kg BID): 71%,
% Recovery 3 mg/kg BID, Body Motion ([3]; 12 weeks, 3 mg/kg BID): 65%,
% Recovery 3 mg/kg BID, Gait ([3]; 12 weeks, 3 mg/kg BID): 60%,
% Recovery 3 mg/kg BID, Paw Positioning ([3]; 12 weeks, 3 mg/kg BID): 35%,
% Recovery 30 mg/kg BID, Body Motion ([3]; 12 weeks, 30 mg/kg BID): 59%,
% Recovery 30 mg/kg BID, Gait ([3]; 12 weeks, 30 mg/kg BID): 100%,
% Recovery 30 mg/kg BID, Paw Positioning ([3]; 12 weeks, 30 mg/kg BID): 52%,
Recovery of overall gait features ([3]; 8 weeks of age): 45%
Recovery of overall gait features ([3]; 12 weeks of age): 55%
Increase in BDNF release vs untreated control ([4]; pridopidine alone 0.001 μM): 13.6% and 13.5%
Increase in BDNF release vs untreated control ([4]; pridopidine alone 0.005 μM): 26%
Increase in BDNF release vs untreated control ([4]; pridopidine alone 0.01 μM ([…] in FIG. 17 legend)): 3.4%
NES (normalized enrichment score), genes downstream to BDNF ([5]; 30 mg/kg BID, BDNF-TrkB pathway genes): 1.752
NES (normalized enrichment score) ([5]; cortex, 3 mg/kg BID, geneset Prido Down / Rett Up): 1.356
NES (normalized enrichment score) ([5]; cortex, 3 mg/kg BID, geneset Prido Up / Rett Down): 1.477
NES (normalized enrichment score) ([5]; cortex, 30 mg/kg BID, geneset Prido Down / Rett Up): 2.081
NES (normalized enrichment score) ([5]; cortex, 30 mg/kg BID, geneset Prido Up / Rett Down): −2.631
Reversal of Rett gene expression pattern ([5]; striatum and cortex of Rett mice, GSEA): strongly reverses
NES (normalized enrichment score) ([5]; striatum, 3 mg/kg BID, geneset Down with Prido / Up in Rett): 2.18
NES (normalized enrichment score) ([5]; striatum, 3 mg/kg BID, geneset Up with Prido / Down in Rett): −2.50
NES (normalized enrichment score) ([5]; striatum, 30 mg/kg BID, geneset Up with Prido / Down in Rett): −1.77
Rescue effect on mean startle response ([6]; 8 weeks of age): ~40%
Rescue effect on mean startle response ([6]; 12 weeks of age): ~50%
Recovery of gait deficits ([7]; 6 weeks of age): 44%
Recovery of gait deficits ([7]; 7 weeks of age): 100%
Increase of BDNF IV mRNA levels ([8]; 3 mg/kg bid and 30 mg/kg bid): ~30%
Effect on mRNA expression of housekeeping genes ATP5B, GAPDH, RPL13A ([8]; 3 and 30 mg/kg bid): does not affect
Effect on BDNF I mRNA levels ([8]; 3 or 30 mg/kg bid): does not affect
Effect on BDNF VI mRNA levels ([8]; 3 or 30 mg/kg bid): does not affect
BDNF secretion in rat neuroblastoma cells [9]: dose dependent increase

CCCN1CCC(O)(c2cccc(S(C)(=O)=O)c2)CC1 [Compound 1]
S1R fold selectivity (S2R/S1R) (Sigma-2 receptor (S2R)): >270 fold
Increase in BDNF release vs untreated control ([4]; Compound 1 alone 1 μM): 12.5%
